Measurements taken from PMC10983009 (Journal of Medicinal Chemistry, 2024).
“And” between values parts separate entries of the source, which are not always exact repeats. Equal values may be shown once. Read-outs that look alike come from different tables or passages of the source. Marks after values point to notes of the source that are not given here.

Legend:
[1] = compound remaining, literature value; cited from earlier work
[2] = compound remaining, literature value; cited from earlier work; remark: listed apart in the source
[3] = biological target: DDR1(h) (Homo sapiens, UniProt Q08345); conditions: at 1 μM; cited from earlier work
DDR1(h), sequence (Q08345 19-913): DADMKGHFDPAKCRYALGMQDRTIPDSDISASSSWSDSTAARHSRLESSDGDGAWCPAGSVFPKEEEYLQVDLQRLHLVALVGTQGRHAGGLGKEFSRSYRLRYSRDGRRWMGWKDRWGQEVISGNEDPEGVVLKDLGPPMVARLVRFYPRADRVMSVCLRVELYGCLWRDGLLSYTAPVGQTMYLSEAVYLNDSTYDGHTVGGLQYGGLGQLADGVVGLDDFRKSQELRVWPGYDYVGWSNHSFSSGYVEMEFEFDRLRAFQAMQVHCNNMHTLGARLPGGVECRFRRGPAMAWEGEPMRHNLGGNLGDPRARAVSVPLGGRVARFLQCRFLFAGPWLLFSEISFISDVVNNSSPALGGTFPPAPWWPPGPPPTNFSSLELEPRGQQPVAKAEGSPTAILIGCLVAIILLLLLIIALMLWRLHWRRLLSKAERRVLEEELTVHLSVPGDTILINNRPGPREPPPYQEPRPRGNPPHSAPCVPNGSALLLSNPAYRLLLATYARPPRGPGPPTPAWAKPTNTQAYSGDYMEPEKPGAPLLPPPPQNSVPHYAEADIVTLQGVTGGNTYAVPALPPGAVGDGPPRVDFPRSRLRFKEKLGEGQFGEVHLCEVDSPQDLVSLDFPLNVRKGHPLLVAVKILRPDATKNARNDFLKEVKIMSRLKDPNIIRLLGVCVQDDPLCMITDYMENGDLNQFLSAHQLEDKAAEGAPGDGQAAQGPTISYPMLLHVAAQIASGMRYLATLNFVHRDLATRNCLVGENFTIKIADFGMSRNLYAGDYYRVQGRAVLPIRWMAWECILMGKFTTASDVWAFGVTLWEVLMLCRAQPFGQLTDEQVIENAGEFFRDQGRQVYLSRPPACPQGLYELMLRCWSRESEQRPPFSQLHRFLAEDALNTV

[4] = biological target: TNIK(h) (Homo sapiens, UniProt Q9UKE5); conditions: at 1 μM; cited from earlier work
TNIK(h), sequence (Q9UKE5 whole entry): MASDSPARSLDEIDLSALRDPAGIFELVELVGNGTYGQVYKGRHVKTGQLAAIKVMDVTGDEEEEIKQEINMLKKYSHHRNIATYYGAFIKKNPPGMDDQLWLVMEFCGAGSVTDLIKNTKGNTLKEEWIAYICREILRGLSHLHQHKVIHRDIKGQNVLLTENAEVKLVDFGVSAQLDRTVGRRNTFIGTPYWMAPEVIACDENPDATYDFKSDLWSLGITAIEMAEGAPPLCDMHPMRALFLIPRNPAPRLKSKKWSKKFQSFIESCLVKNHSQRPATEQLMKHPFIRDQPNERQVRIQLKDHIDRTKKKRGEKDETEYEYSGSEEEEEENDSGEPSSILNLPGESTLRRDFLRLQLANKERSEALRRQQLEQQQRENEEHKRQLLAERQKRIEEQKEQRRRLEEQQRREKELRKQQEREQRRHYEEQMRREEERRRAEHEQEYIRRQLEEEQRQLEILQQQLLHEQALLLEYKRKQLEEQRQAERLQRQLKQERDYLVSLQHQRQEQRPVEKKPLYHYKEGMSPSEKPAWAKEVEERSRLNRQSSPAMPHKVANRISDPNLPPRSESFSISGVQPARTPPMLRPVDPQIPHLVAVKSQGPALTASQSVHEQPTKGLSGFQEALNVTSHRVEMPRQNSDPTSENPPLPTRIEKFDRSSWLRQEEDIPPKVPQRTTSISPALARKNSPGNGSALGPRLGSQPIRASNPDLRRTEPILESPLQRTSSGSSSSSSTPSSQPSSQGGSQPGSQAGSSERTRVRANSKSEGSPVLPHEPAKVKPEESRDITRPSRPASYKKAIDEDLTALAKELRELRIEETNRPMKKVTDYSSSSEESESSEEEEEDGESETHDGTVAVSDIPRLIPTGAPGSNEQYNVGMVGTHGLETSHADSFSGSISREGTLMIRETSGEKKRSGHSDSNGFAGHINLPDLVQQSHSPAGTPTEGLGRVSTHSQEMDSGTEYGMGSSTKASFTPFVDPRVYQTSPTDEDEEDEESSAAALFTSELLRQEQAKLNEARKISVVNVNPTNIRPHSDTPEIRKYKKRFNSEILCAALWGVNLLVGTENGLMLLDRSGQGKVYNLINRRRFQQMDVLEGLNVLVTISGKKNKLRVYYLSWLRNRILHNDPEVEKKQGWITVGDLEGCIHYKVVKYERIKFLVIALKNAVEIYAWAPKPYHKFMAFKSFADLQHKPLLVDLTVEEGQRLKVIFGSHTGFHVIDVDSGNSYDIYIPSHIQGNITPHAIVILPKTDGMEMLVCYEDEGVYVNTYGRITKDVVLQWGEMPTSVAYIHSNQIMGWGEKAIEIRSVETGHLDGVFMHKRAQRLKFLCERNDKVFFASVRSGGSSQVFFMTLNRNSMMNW

[5] = system: Caco-2 cells; conditions: literature value, cited from earlier work
[6] = Liver microsomal metabolic stability assay; type: in vitro ADME, CD-1 mouse (male); conditions: compound remaining after 60 min at 37 °C, 1 μM
[7] = Caco-2 permeability assay; type: in vitro ADME; conditions: human, Caco-2, pH 7.4
[8] = Liver microsomal metabolic stability assay; type: in vitro ADME, human; conditions: compound remaining after 60 min at 37 °C, 1 μM
[9] = biological target: T1, ALK4/ACVR1β (Homo sapiens, UniProt P36896); experiment: Radiometric in vitro kinase assay
T1 sequence (P36896 24-505): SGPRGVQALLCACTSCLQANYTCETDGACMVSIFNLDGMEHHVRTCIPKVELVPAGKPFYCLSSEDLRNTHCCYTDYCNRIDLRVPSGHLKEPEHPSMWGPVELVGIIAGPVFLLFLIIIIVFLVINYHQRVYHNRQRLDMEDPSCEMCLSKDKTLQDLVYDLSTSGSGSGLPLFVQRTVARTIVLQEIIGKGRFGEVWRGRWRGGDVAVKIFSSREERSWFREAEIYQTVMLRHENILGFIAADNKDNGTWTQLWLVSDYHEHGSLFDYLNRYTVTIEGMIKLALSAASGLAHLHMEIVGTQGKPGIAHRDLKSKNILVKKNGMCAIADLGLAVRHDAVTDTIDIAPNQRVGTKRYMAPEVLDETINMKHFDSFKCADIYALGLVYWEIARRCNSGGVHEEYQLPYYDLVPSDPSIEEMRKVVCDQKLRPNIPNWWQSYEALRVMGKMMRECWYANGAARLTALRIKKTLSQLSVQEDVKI

[10] = biological target: Full Kinase Panel (422-member kinase set); experiment: Eurofins Full Kinase Panel KinaseProfiler, whole panel; type: biochemical; conditions: at 1 μM
[11] = In vivo PK exposure in mouse model; conditions: male, NOD-SCID, po, 25 mg/kg
[12] = system: H3.3K27M, ACVR1^R206H mutant HSJD-DIPG-007 cells; conditions: 25 mg/kg for 28 days; cited from earlier work

## COc1cc(-c2cncc(-c3ccc(N4CCNCC4)cc3)c2C)cc(OC)c1OC [Compound M4K2009]
[1]
  Microsomal Stability Assay MLM (%): 65 ^a % and 65%
[2]
  Microsomal Stability Assay HLM (%): 71 ^a % and 71%
[3]
  inhibition of DDR1: almost complete inhibition
[4]
  inhibition of TNIK: almost complete inhibition
[5]; A to B
  Caco-2 Permeability Assay Papp_AB: 5.4 ^a 10^–6 cm/s
[5]; B to A
  Caco-2 Permeability Assay Papp_BA: 1.5 ^a 10^–6 cm/s

## COc1cc(-c2cncc3c2CN(C)Cc2cc(N4CCNCC4)ccc2-3)cc(OC)c1OC [Compound M4K2304, 6-Methyl-9-(piperazin-1-yl)-4-(3,4,5-trimethoxyphenyl)-6,7-dihydro-5H-benzo[c]pyrido[3,4-e]azepine]
[6]
  Microsomal Stability Assay MLM (%): > 70%
[7]
  recovery at 2 h, 5 μM: < 15%
[8]
  Microsomal Stability Assay HLM (%): > 70%
[9]
  IC50: 1180 nM
[10]
  kinases inhibited by more than 50%: 3%

## COc1cc(-c2cncc3c2CN(C)Cc2cc(N4CCN(C)CC4)ccc2-3)cc(OC)c1OC [Compound M4K2306, 6-Methyl-9-(4-methylpiperazin-1-yl)-4-(3,4,5-trimethoxyphenyl)-6,7-dihydro-5H-benzo[c]pyrido[3,4-e]azepine]
[7]
  recovery at 2 h, 5 μM: < 15%

## COc1cc(-c2cncc3c2CCOc2cc(N4CCN(C)CC4)ccc2-3)cc(OC)c1OC [Compound M4K2281, 9-(4-Methylpiperazin-1-yl)-4-(3,4,5-trimethoxyphenyl)-5,6-dihydrobenzo[2,3]oxepino[4,5-c]pyridine]
[11]
  concentration at 24 h: 0 nM

## COc1cc(-c2cc(-c3ccc(N4CCNCC4)cc3)cnc2C)cc(OC)c1OC [LDN-214117]
[12]
  survival of mice bearing orthotopic xenografts: extended survival
